Consider 12 compounds from ChEMBL document CHEMBL1156547, “10-Hydroxy-7,8-dihydropyrazino[1',2':1,5]pyrrolo[2,3-d]pyridazine-1,9(2H,6H)-diones: potent, orally bioavailable HIV-1 integrase strand-transfer inhibitors with activity against integrase mutants” (Bioorg Med Chem Lett, 2008).

The subject of data set [1] is Human immunodeficiency virus 1. Nature of the data set: Ratio of IC50 for HIV1 3B with integrase N155S mutation to IC50 for wild type HIV1 3B by single-cycle viral replication assay in presence of 10% FBS. Type of data set: functional.
Data set [2] in a line: Plasma half life in Sprague-Dawley rat at 2 mg/kg, iv. Also noted: dose 2 mg/kg, route intravenous. Type of data set: ADME, organism-based.
The test system of data set [3] is Human immunodeficiency virus 1. Nature of the data set: Ratio of IC50 for HIV1 3B with integrase F121Y mutation to IC50 for wild type HIV1 3B by single-cycle viral replication assay in presence of 10% FBS. Type of data set: functional.
Data set [4] is described as follows: Volume of distribution in Sprague-Dawley rat at 2 mg/kg, iv. Type of data set: ADME, organism-based. Also noted: dose 2 mg/kg, route intravenous. The note with it: in vivo.
The subject of data set [5] is Human immunodeficiency virus 1. Nature of the data set: Antiviral activity against HIV1 3B in human MT4 cells assessed as reduction in p24 antigen levels after 72 hrs by multi-cycle viral replication assay in presence of 10% FBS. Type of data set: functional.
Data set [6] concerns Human immunodeficiency virus 1. Nature of the data set: Ratio of IC50 for HIV1 3B with integrase T66I/S153Y mutation to IC50 for wild type HIV1 3B by single-cycle viral replication assay in presence of 10% FBS. Type of data set: functional.
Data set [7] in a line: Oral bioavailability in Sprague-Dawley rat at 10 mg/kg. Type of data set: ADME, organism-based. As to conditions: in vivo.
Data set [8] deals with Human immunodeficiency virus 1. Nature of the data set: Antiviral activity against HIV1 3B in human MT4 cells assessed as reduction in p24 antigen levels after 72 hrs by multi-cycle viral replication assay in presence of 50% normal human serum. Format: functional.
Data set [9] relates to Human immunodeficiency virus 1. Nature of the data set: Antiviral activity against wild type HIV1 3B in human P4/R5 cells assessed as beta-galactosidase activity by single-cycle viral replication assay in presence of 10% FBS. As to conditions: Human immunodeficiency virus 1, 3B. Type of data set: functional, organism-based.
Data set [10] is described as follows: Clearance in Sprague-Dawley rat at 2 mg/kg, iv. The note with it: in vivo. Also noted: dose 2 mg/kg, route intravenous. Type of data set: ADME, organism-based.
Data set [11] deals with Human immunodeficiency virus type 1 integrase (Human immunodeficiency virus 1, UniProt Q7ZJM1). Nature of the data set: Inhibition of HIV1 integrase strand transfer activity.
Human immunodeficiency virus type 1 integrase, sequence (Q7ZJM1 whole entry): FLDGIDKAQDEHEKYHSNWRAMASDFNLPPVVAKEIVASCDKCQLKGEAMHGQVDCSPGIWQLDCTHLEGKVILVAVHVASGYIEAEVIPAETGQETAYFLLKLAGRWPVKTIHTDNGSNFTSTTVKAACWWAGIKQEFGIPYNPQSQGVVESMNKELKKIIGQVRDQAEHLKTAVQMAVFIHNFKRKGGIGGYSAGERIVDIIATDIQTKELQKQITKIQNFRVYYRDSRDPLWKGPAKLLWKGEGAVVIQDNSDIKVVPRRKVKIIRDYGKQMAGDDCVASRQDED
The next data set relates to Canis familiaris. Nature of the data set: Half life in iv dosed Beagle dog. Type of data set: ADME, organism-based, Canis lupus familiaris. The note with it: in vivo.
A short description of data set [12]: Oral bioavailability in Beagle dog. Format: ADME, organism-based, Canis lupus familiaris. As to conditions: in vivo.
In data set [13] the test system is Human immunodeficiency virus 1. Briefly: Antiviral activity against HIV1 with integrase Q148K mutation relative to wild type HIV1. Type of data set: functional.
Data set [14] in a line: Clearance in Beagle dog. As to conditions: in vivo. Type of data set: ADME, organism-based, Canis lupus familiaris.

As a reminder, the half-life is the time needed for the level to fall by half in the phase considered. Low readings indicate rapid decline, high ones slow decline. Broadly, the Vd is a proportionality between amount in the body and measured concentration, not a real space. Low readings indicate little distribution into tissue, high ones wide distribution into tissue. Usually bioavailability stands for the share of a dose that reaches the circulation, judged against a reference dose that is usually intravenous. Lower therefore signals little systemic uptake. What is called IC95 is the concentration at which the effect reaches the 95% level. By IC50 is commonly meant the concentration that inhibits the measured activity by half. What is called clearance is a measure of how efficiently the substance is removed, as volume per time. A low value points to inefficient removal. In the case of `CC(C)N1C[C@H](C)n2c(c(O)c3c(=O)n(Cc4ccc(F)c(Cl)c4)ncc32)C1=O`, the “Ratio IC50” value came to 3 in [1], 1 in data set [3] and 1 in data set [6]. This compound also gave a half-life in [2] of 13 h. For the same compound, in data set [4], the Vd was 0.2 L/kg. The “Antiviral activity (p24 reduction)” value in [5] is 30 nM. This compound also showed a bioavailability in [7] of 14%. Also, in data set [8], the IC95 was 220 nM. The IC50 in data set [9] is 28 nM. The same compound yielded a clearance in [10] of 0.17 mL/min/kg.
On to `Cc1nn(Cc2ccc(F)cc2)c(=O)c2c(O)c3n(c12)[C@@H](C)CN(C(C)C)C3=O`, for which the “Ratio IC50” value was determined as 2 in [1], 1 in [3] and 1 in data set [6]. The compound also gave a half-life in data set [2] of 5.3 h. Moreover, the IC50 in data set [11] is no more than 10 nM; in data set [9], 10 nM. The same compound displayed a T1/2 in the data set on Canis familiaris of 1 h. Also, the figures for the bioavailability in data set [12] and in [7] were less than 5% and 17%, respectively. In addition, in data set [4], the Vd came to 0.3 L/kg. In addition, the “Antiviral activity (p24 reduction)” value in data set [5] is listed as 16 nM. The “fold change (FC)” value in data set [13] was found to be 3. For the same compound, the IC95 in data set [8] amounted to 35 nM. The clearance in [10] came to 3 mL/min/kg; in data set [14], 10 mL/min/kg.
For `CCN1C[C@H](C)n2c(c(O)c3c(=O)n(Cc4ccc(F)cc4)ncc32)C1=O`, the entries for the “Ratio IC50” value in [1], in data set [3] and in data set [6] were 27, 5 and 1, respectively. The same compound showed a half-life in [2] of 6 h. The compound further yielded a Vd in data set [4] of 0.2 L/kg. Moreover, the “Antiviral activity (p24 reduction)” value in data set [5] came out at 24 nM. Besides, in data set [7], the bioavailability turned out to be 31%. The IC95 in data set [8] was found to be 46 nM. In data set [9], the IC50 stood at 16 nM. This compound came in with a clearance in data set [10] of 0.5 mL/min/kg.
Turning to `CCN1C[C@@H](C)n2c(c(O)c3c(=O)n(Cc4ccc(F)cc4)ncc32)C1=O`, the “Ratio IC50” value in data set [1] stood at 10; in data set [3] it was 8; in [6], 9. Further, the “Antiviral activity (p24 reduction)” value in [5] is recorded as 250 nM. Besides, the concentration for an effect of 95% (IC95) in data set [8] amounted to 500 nM. The IC50 in data set [9] stood at 52 nM.
Regarding `CCN1C[C@H](C)n2c(c(O)c3c(=O)n(Cc4ccc(F)cc4)nc(C)c32)C1=O`, the “Ratio IC50” value in [1] stood at 6; in data set [3] it was 1; in [6], 1. Also, the half-life in [2] was 6.2 h. In data set [4], this compound gave a Vd of 2.6 L/kg. Moreover, the “Antiviral activity (p24 reduction)” value in [5] is reported as 17 nM. In data set [7], this compound yielded a bioavailability of 7%. For the same compound, the IC95 in [8] is recorded as 40 nM. Further, the IC50 in data set [9] was 14 nM. The compound also had a clearance in data set [10] of 17 mL/min/kg.
Consider `CN1CCn2c(c(O)c3c(=O)n(Cc4ccc(F)cc4)ncc32)C1=O`, for which the entries for the “Ratio IC50” value in data set [1], in data set [3] and in [6] were 53, 11 and 7, respectively. The “Antiviral activity (p24 reduction)” value in data set [5] amounted to 120 nM. Also, the IC95 in [8] is recorded as 380 nM. Moreover, in data set [9], the IC50 worked out at 72 nM.
On to `Cc1nn(Cc2ccc(F)cc2)c(=O)c2c(O)c3n(c12)CCN(C)C3=O`, for which the “Ratio IC50” value in data set [1] came out at 48; in data set [3] it was 10; in data set [6] it was 8. The “Antiviral activity (p24 reduction)” value in [5] was found to be 43 nM. The IC95 in [8] came out at 130 nM. Also, the IC50 in [9] is 21 nM.
`CC(C)N1C[C@H](C)n2c(c(O)c3c(=O)n(Cc4ccc(F)cc4)ncc32)C1=O`: the results for the “Ratio IC50” value in data set [1], in data set [3] and in data set [6] were 6, 2 and 1, respectively. In [2], this compound gave a half-life of 12 h. The IC50 was no more than 10 nM in data set [11] and 19 nM in [9]. Also, the T1/2 in the data set with Canis familiaris was 1 h. Moreover, the bioavailability in data set [12] is less than 5%; in data set [7], 21%. In data set [4], this compound registered a Vd of 0.2 L/kg. Moreover, in data set [5], the “Antiviral activity (p24 reduction)” value worked out at 13 nM. Besides, in data set [13], the “fold change (FC)” value is 45. Moreover, in [8], the concentration for an effect of 95% (IC95) is 26 nM. The clearance in data set [10] was found to be 0.17 mL/min/kg; in data set [14], 10 mL/min/kg.
As for `Cc1nn(Cc2ccc(F)cc2)c(=O)c2c(O)c3n(c12)[C@H](C)CN(C)C3=O`, the “Ratio IC50” value in [1] turned out to be 91; in [3], 9; in data set [6] it was 8. The “Antiviral activity (p24 reduction)” value in data set [5] was 250 nM. For the same compound, the IC95 in data set [8] was 1000 nM. Also, the IC50 in data set [9] is 66 nM.
As for `CCN1C[C@H](C)n2c(c(O)c3c(=O)n(Cc4ccc(F)c(Cl)c4)ncc32)C1=O`, the “Ratio IC50” value in [1] was found to be 7; in data set [3], 2; in [6], 1. In [2], this compound showed a half-life of 9.5 h. For the same compound, the Vd in data set [4] is 0.3 L/kg. For the same compound, the “Antiviral activity (p24 reduction)” value in data set [5] is on record as 31 nM. The compound further came in with a bioavailability in [7] of 13%. In [8], the IC95 came out at 160 nM. Also, the IC50 in data set [9] was 19 nM. This compound had a clearance in data set [10] of 0.27 mL/min/kg.
For the compound `CCN1CC(C)(C)n2c(c(O)c3c(=O)n(Cc4ccc(F)cc4)ncc32)C1=O`, the “Ratio IC50” value in data set [1] is 27; in [3], 10; in data set [6], 3. The half-life in data set [2] is 5.2 h. Moreover, the Vd in [4] amounted to 0.3 L/kg. Moreover, in [5], the “Antiviral activity (p24 reduction)” value is 10 nM. The same compound gave a bioavailability in data set [7] of 13%. Also, the IC95 in data set [8] was 30 nM. Besides, the IC50 in [9] turned out to be 19 nM. In [10], this compound gave a clearance of 0.68 mL/min/kg.
With `Cc1nn(Cc2ccc(F)cc2)c(=O)c2c(O)c3n(c12)[C@@H](C)CN(C)C3=O`, the figures for the “Ratio IC50” value in [1], in data set [3] and in [6] were 20, 4 and 2, respectively. Moreover, the “Antiviral activity (p24 reduction)” value in data set [5] is 10 nM. The IC95 in data set [8] was determined as 31 nM. For the same compound, the IC50 in data set [9] was found to be 10 nM.
